Data as given in ChEMBL document CHEMBL1909294, “Translating clinical findings into knowledge in drug safety evaluation--drug induced liver injury prediction system (DILIps)” (PLoS Comput Biol, 2011).

Legend:
Hepatotoxicity [1] = test system: Hepatotoxicity;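 for HepSE Combined Scores: combined hepatic side effect score as listed in the training data of the Drug Induced Liver Injury Prediction System (DILIps)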;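 for HepSE elevated liver function tests: hepatic side effect score for raised liver function tests, as recorded in the DILIps training set used for predicting drug-induced liver injury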; for HepSE hepatic failure: call rule not given here;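 for HepSE hepatitis: Hepatitis-related hepatic side effect score taken from the training data of DILIps, a prediction system for drug-induced liver injury; call rule not given here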;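 for HepSE jaundice: Jaundice-related hepatic side-effect score drawn from the training data of the DILIps (drug-induced liver injury prediction system); call rule not given here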; for HepSE liver disease: call rule not given here;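 for HepSE liver function tests abnormal: hepatic side effect score taken from the DILIps (drug-induced liver injury prediction system) training data, here covering abnormal liver function test findings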
Hepatotoxicity [2] = test system: Hepatotoxicity; remark: listed apart in the source;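 for HepSE Combined Scores: combined hepatic side effect score as listed in the training data of the Drug Induced Liver Injury Prediction System (DILIps)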;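 for HepSE elevated liver function tests: hepatic side effect score for raised liver function tests, as recorded in the DILIps training set used for predicting drug-induced liver injury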; for HepSE hepatic failure: call rule not given here;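 for HepSE hepatitis: Hepatitis-related hepatic side effect score taken from the training data of DILIps, a prediction system for drug-induced liver injury; call rule not given here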;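 for HepSE jaundice: Jaundice-related hepatic side-effect score drawn from the training data of the DILIps (drug-induced liver injury prediction system); call rule not given here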; for HepSE liver disease: call rule not given here;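 for HepSE liver function tests abnormal: hepatic side effect score taken from the DILIps (drug-induced liver injury prediction system) training data, here covering abnormal liver function test findings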
Hepatotoxicity [3] = test system: Hepatotoxicity; remark: listed apart in the source;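 for HepSE Combined Scores: combined hepatic side effect score as listed in the training data of the Drug Induced Liver Injury Prediction System (DILIps)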;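 for HepSE elevated liver function tests: hepatic side effect score for raised liver function tests, as recorded in the DILIps training set used for predicting drug-induced liver injury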; for HepSE hepatic failure: call rule not given here;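 for HepSE hepatitis: Hepatitis-related hepatic side effect score taken from the training data of DILIps, a prediction system for drug-induced liver injury; call rule not given here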;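 for HepSE jaundice: Jaundice-related hepatic side-effect score drawn from the training data of the DILIps (drug-induced liver injury prediction system); call rule not given here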; for HepSE liver disease: call rule not given here;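 for HepSE liver function tests abnormal: hepatic side effect score taken from the DILIps (drug-induced liver injury prediction system) training data, here covering abnormal liver function test findings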
Hepatotoxicity [4] = test system: Hepatotoxicity; remark: listed apart in the source;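 for HepSE Combined Scores: combined hepatic side effect score as listed in the training data of the Drug Induced Liver Injury Prediction System (DILIps)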;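 for HepSE elevated liver function tests: hepatic side effect score for raised liver function tests, as recorded in the DILIps training set used for predicting drug-induced liver injury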; for HepSE hepatic failure: call rule not given here;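 for HepSE jaundice: Jaundice-related hepatic side-effect score drawn from the training data of the DILIps (drug-induced liver injury prediction system); call rule not given here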; for HepSE liver disease: call rule not given here;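 for HepSE liver function tests abnormal: hepatic side effect score taken from the DILIps (drug-induced liver injury prediction system) training data, here covering abnormal liver function test findings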
Hepatotoxicity [5] = test system: Hepatotoxicity; remark: listed apart in the source; for HepSE hepatic failure: call rule not given here; for HepSE liver disease: call rule not given here
Hepatotoxicity [6] = test system: Hepatotoxicity; remark: listed apart in the source; for HepSE hepatic failure: call rule not given here; for HepSE liver disease: call rule not given here
Hepatotoxicity [7] = test system: Hepatotoxicity; remark: listed apart in the source
Hepatotoxicity [8] = test system: Hepatotoxicity; remark: listed apart in the source
Hepatotoxicity [9] = test system: Hepatotoxicity; remark: listed apart in the source
Hepatotoxicity [10] = test system: Hepatotoxicity; remark: listed apart in the source
Hepatotoxicity [11] = test system: Hepatotoxicity; remark: listed apart in the source
Hepatotoxicity [12] = test system: Hepatotoxicity; remark: listed apart in the source
Hepatotoxicity [13] = test system: Hepatotoxicity; remark: listed apart in the source
Hepatotoxicity [14] = test system: Hepatotoxicity; remark: listed apart in the source

| Compound | HepSE_liver disease (Hepatotoxicity [1]) | HepSE_Combined Scores (Hepatotoxicity [2]) | HepSE_hepatic failure (Hepatotoxicity [3]) | HepSE_elevated liver function tests (Hepatotoxicity [4]) | HepSE_jaundice (Hepatotoxicity [5]) | HepSE_liver function tests abnormal (Hepatotoxicity [6]) | HepSE_hepatitis (Hepatotoxicity [7]) | HepSE_hepatic necrosis (Hepatotoxicity [8]) | HepSE_cholecystitis (Hepatotoxicity [9]) | HepSE_hepatomegaly (Hepatotoxicity [10]) | HepSE_liver fatty (Hepatotoxicity [11]) | HepSE_cholelithiasis (Hepatotoxicity [12]) | HepSE_bilirubinemia (Hepatotoxicity [13]) | HepSE_cirrhosis (Hepatotoxicity [14]) | also measured |
| --- | --- | --- | --- | --- | --- | --- | --- | --- | --- | --- | --- | --- | --- | --- | --- |
| CCOC(=O)[C@H](CCc1ccccc1)N[C@@H](C)C(=O)N1Cc2cc(OC)c(OC)cc2C[C@H]1C(=O)O [MOEXIPRIL] | 0 | 1 | 0 | 0 | 0 | 0 | 1 | 0 | 0 | 0 | 0 | 0 | 0 | 0 | – |
| CCc1c(C)[nH]c2c1C(=O)C(CN1CCOCC1)CC2 (stereo not drawn) [MOLINDONE] | 0 | 0 | 0 | 0 | 0 | 0 | 0 | 0 | 0 | 0 | 0 | 0 | 0 | 0 | – |
| C[C@@H]1C[C@H]2[C@@H]3CCC4=CC(=O)C=C[C@]4(C)[C@@]3(Cl)[C@@H](O)C[C@]2(C)[C@@]1(O)C(=O)CCl [MOMETASONE] | 0 | 0 | 0 | 0 | 0 | 0 | 0 | 0 | 0 | 0 | 0 | 0 | 0 | 0 | – |
| Oc1ccc(OCc2ccccc2)cc1 [MONOBENZONE] | 0 | 0 | 0 | 0 | 0 | 0 | 0 | 0 | 0 | 0 | 0 | 0 | 0 | 0 | – |
| CC(C)(O)c1ccccc1CC[C@@H](SCC1(CC(=O)O)CC1)c1cccc(/C=C/c2ccc3ccc(Cl)cc3n2)c1 [MONTELUKAST] | 1 | 2 | 0 | 0 | 0 | 0 | 1 | 0 | 0 | 0 | 0 | 0 | 0 | 0 | – |
| CCOC(=O)Nc1ccc2c(c1)N(C(=O)CCN1CCOCC1)c1ccccc1S2 [MORICIZINE] | 0 | 2 | 0 | 0 | 1 | 0 | 1 | 0 | 0 | 0 | 0 | 0 | 0 | 0 | – |
| COc1c(N2C[C@@H]3CCCN[C@@H]3C2)c(F)cc2c(=O)c(C(=O)O)cn(C3CC3)c12 [MOXIFLOXACIN] | 0 | 5 | 1 | 0 | 1 | 1 | 1 | 0 | 0 | 0 | 0 | 0 | 1 | 0 | – |
| C/C(=C\C(=O)OCCCCCCCCC(=O)O)C[C@@H]1OC[C@H](C[C@@H]2O[C@H]2[C@@H](C)[C@H](C)O)[C@@H](O)[C@H]1O [MUPIROCIN] | 0 | 0 | 0 | 0 | 0 | 0 | 0 | 0 | 0 | 0 | 0 | 0 | 0 | 0 | – |
| COc1c(C)c2c(c(O)c1C/C=C(\C)CCC(=O)O)C(=O)OC2 [MYCOPHENOLIC ACID] | 1 | 5 | 0 | 0 | 1 | 1 | 1 | 0 | 0 | 0 | 0 | 0 | 1 | 0 | – |
| CCCCCCC(C)(C)c1cc(O)c2c(c1)OC(C)(C)C1CCC(=O)CC21 (stereo not drawn) [NABILONE] | 0 | 0 | 0 | 0 | 0 | 0 | 0 | 0 | 0 | 0 | 0 | 0 | 0 | 0 | – |
| COc1ccc2cc(CCC(C)=O)ccc2c1 [NABUMETONE] | 0 | 3 | 1 | 1 | 1 | 0 | 0 | 0 | 0 | 0 | 0 | 0 | 0 | 0 | – |
| CC(C)(C)NCC(O)COc1cccc2c1CC(O)C(O)C2 (stereo not drawn) [NADOLOL] | 0 | 0 | 0 | 0 | 0 | 0 | 0 | 0 | 0 | 0 | 0 | 0 | 0 | 0 | – |
| CN(C/C=C/c1ccccc1)Cc1cccc2ccccc12 [NAFTIFINE] | – | – | – | – | – | – | – | – | – | – | – | – | – | – | HepSE_liver disease (Hepatotoxicity [1]; Liver): 0; HepSE_Combined Scores (Hepatotoxicity [2]; Liver): 0; HepSE_hepatic failure (Hepatotoxicity [3]; Liver): 0; HepSE_elevated liver function tests (Hepatotoxicity [4]; Liver): 0; HepSE_jaundice (Hepatotoxicity [5]; Liver): 0; HepSE_liver function tests abnormal (Hepatotoxicity [6]; Liver): 0; HepSE_hepatitis (Hepatotoxicity [7]; Liver): 0; HepSE_hepatic necrosis (Hepatotoxicity [8]; Liver): 0; HepSE_cholecystitis (Hepatotoxicity [9]; Liver): 0; HepSE_hepatomegaly (Hepatotoxicity [10]; Liver): 0; HepSE_liver fatty (Hepatotoxicity [11]; Liver): 0; HepSE_cholelithiasis (Hepatotoxicity [12]; Liver): 0; HepSE_bilirubinemia (Hepatotoxicity [13]; Liver): 0; HepSE_cirrhosis (Hepatotoxicity [14]; Liver): 0 |
| Oc1ccc2c3c1O[C@H]1[C@@H](O)CC[C@@]4(O)[C@@H](C2)N(CC2CCC2)CC[C@]314 [NALBUPHINE] | 0 | 0 | 0 | 0 | 0 | 0 | 0 | 0 | 0 | 0 | 0 | 0 | 0 | 0 | – |
| CCn1cc(C(=O)O)c(=O)c2ccc(C)nc21 [NALIDIXIC ACID] | 0 | 0 | 0 | 0 | 0 | 0 | 0 | 0 | 0 | 0 | 0 | 0 | 0 | 0 | – |
| C=CCN1CC[C@]23c4c5ccc(O)c4O[C@H]2C(=O)CC[C@@]3(O)[C@H]1C5 [NALOXONE] | 0 | 0 | 0 | 0 | 0 | 0 | 0 | 0 | 0 | 0 | 0 | 0 | 0 | 0 | – |
| O=C1CC[C@@]2(O)[C@H]3Cc4ccc(O)c5c4[C@@]2(CCN3CC2CC2)[C@H]1O5 [NALTREXONE] | 0 | 2 | 0 | 0 | 0 | 0 | 1 | 0 | 0 | 0 | 0 | 1 | 0 | 0 | – |
